Reference: US20080319065A1, “Systemic and Intrathecal Effects of a Novel Series of Phospholipase A2 Inhibitors on Hyperalgesia and Spinal Pge2 Release” (The Regents of the University of California, priority 2005, published 2008)
Entries after “also recorded” stand apart in the source; their conditions may differ.

Columns and labels:
[1] = target: T1, Group VIA iPLA2 (GVIA PLA2) (Homo sapiens, UniProt O60733); experiment: In vitro Group VIA iPLA2 mixed micelle assay; type: biochemical; conditions: for inhibition at 0.091 mole fraction: read-out: iPLA2 inh, percent inhibition; for iPLA2 inh, XI(50): Table 3; for Inhibition of GVIA PLA2: at highest dose
T1 sequence (O60733 1-806): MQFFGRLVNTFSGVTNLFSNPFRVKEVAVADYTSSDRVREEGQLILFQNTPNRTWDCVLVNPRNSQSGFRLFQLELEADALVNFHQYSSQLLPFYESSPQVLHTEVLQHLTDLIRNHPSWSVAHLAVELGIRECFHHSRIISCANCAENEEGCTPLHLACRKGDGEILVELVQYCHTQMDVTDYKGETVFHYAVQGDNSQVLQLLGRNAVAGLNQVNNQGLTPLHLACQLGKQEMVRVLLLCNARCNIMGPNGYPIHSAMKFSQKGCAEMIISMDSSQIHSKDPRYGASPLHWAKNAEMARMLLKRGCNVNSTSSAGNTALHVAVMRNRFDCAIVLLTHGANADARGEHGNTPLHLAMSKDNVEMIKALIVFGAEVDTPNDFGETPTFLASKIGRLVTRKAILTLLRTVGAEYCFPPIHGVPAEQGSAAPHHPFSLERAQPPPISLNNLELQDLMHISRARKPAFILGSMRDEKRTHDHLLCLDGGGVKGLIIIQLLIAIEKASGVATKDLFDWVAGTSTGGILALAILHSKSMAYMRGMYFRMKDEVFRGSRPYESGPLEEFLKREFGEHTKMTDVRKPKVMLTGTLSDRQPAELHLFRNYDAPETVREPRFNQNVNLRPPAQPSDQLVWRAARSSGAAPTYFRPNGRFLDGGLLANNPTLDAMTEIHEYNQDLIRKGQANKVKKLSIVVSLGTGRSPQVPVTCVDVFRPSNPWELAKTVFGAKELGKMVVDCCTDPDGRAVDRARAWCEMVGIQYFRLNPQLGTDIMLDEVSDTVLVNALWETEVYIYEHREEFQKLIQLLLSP
Description: (§1) Numerous 2-oxoamides were tested for inhibition of PLA2s in in vitro assay systems. The data, summarized in Tables 1a, 1b and 2 are represented as XI(50) values unless otherwise noted. XI(50) is defined as the inhibitor concentration that produced 50% inhibition. XI(50) is used as opposed to the more common IC50 because GIVA and GVIA PLA2 are active at a two-dimensional lipid interface rather than in three-dimensional solution. (Deems, Anal. Biochem., 287:1-16, 2000). The 2-oxoamide inhibitors likely partition to the micelle interface and therefore must be represented as a percentage of surface concentration (mole fraction) as opposed to bulk concentration (molar units). (Kokotos, et al., J. Med. Chem., 45:2891-2893, 2002).
(§2) In vitro Group IV cPLA2 and Group VI iPLA2 assays were done as previously described (Kokotos, et al., supra, 2002). Briefly, 100 μM lipid substrate and 100,000 cpm radiolabeled analog were dried down under N2 and dissolved in assay buffer containing 400 μM Triton X-100 to yield a mixed micelle substrate solution. Inhibitors dissolved in DMSO were added to the reaction tubes and allowed to incubate with substrate for five minutes at 40° C. Pure enzyme was added to yield a final volume of 500 μl, and digestion was carried out at 40° C. for 30 minutes. Reactions were quenched and extracted using the Dole method and products were quantified by liquid scintillation counting. Percent inhibition was determined at a range of inhibitor mole fraction concentrations for XI(50) calculations.

GV sPLA2 = target: T2, GV sPLA2 (Homo sapiens, UniProt P39877); experiment: GV sPLA2 activity assay; type: biochemical; conditions: for inhibition at 0.091 mole fraction: read-out: sPLA2 inh., percent inhibition; for efficacy against sPLA2: at 0.091 mole fraction
T2 sequence (P39877 21-138): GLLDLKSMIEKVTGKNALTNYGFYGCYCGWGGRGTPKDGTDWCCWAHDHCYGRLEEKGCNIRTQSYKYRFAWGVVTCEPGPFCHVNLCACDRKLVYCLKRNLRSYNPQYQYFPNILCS
Description: GV sPLA2 activity was measured in a similar assay. The final assay buffer was composed of 50 mM Tris-HCl (pH 8.0) and 5 mM CaCl2. Each assay was performed in 500 μL total volume made up of 100 μL of 5× substrate solution (20 μL of 10 mM Triton X-100 and 80 μL assay buffer), 390 μL assay buffer, 10 μL GV sPLA2 solution (1 μL of 40 ng/μL stock and 9 μL assay buffer), and 5 μL of DMSO or 2-oxoamide in DMSO. The 5× substrate solution was prepared by drying down the phospholipids (in organic solvent) with N2. The appropriate volume of 10 mM Triton X-100 was added, heated and vortexed until clear. Then assay buffer was added to make a 5× substrate solution. The final mixed micelles were at 400 μM Triton X-100 and 100 μM DPPC (of which 100,000 cpm of ^14C-DPPC).

[2] = target: T3, Group IVA cPLA2 (GIVA PLA2) (Homo sapiens, UniProt P47712); experiment: In vitro Group IVA cPLA2 mixed micelle assay; type: biochemical; conditions: for inhibition at 0.091 mole fraction: read-out: cPLA2 inh, percent inhibition (converted); for cPLA2 inh, XI(50): Table 3; for Inhibition of GIVA PLA2: at highest dose
T3 sequence (P47712 1-749): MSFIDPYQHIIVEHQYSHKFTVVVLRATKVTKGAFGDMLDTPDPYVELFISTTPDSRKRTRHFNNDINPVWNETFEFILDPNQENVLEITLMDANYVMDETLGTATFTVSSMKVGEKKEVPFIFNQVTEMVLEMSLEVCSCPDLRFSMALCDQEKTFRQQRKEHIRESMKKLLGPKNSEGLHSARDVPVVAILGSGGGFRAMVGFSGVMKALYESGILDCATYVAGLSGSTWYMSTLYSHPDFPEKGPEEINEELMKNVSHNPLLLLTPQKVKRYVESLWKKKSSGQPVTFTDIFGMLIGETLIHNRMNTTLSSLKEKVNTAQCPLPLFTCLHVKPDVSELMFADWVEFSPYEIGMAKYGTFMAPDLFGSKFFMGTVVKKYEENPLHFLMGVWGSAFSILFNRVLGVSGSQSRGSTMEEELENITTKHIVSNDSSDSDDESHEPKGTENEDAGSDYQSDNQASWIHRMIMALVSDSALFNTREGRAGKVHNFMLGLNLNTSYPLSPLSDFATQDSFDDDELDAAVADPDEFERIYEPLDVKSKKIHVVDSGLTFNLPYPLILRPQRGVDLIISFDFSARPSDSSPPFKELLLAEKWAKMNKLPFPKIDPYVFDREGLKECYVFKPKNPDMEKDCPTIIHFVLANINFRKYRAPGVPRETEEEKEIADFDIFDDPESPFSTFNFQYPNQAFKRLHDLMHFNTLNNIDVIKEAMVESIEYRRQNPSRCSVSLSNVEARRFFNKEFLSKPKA
Description: as §1, §2

CCC[C@H](NC(=O)C(=O)CC)C(=O)NCC(=O)OCC [AX127]
inhibition at 0.091 mole fraction [1]: 93.9% | inhibition at 0.091 mole fraction (GV sPLA2): 63.1% | inhibition at 0.091 mole fraction [2]: 72.6%

CCOC(=O)c1ccc(NC(=O)C(=O)CC)cc1 [AX091]
inhibition at 0.091 mole fraction [1]: 14.3% | inhibition at 0.091 mole fraction (GV sPLA2): 66.5% | cPLA2 inh, XI(50) [2]: XI(50) =0.029 ± .016 mole fraction

CCOC(=O)CNC(=O)C(=O)CC [AX114]
inhibition at 0.091 mole fraction [1]: 61.6% | inhibition at 0.091 mole fraction (GV sPLA2): 99.8% | inhibition at 0.091 mole fraction [2]: 73.7%

CC/C=C\CC(=O)C(=O)NCCCC(=O)OC(C)(C)C [AX055]
iPLA2 inh, XI(50) [1]: XI(50) =0.054 ± .004 mole fraction | inhibition at 0.091 mole fraction (GV sPLA2): 85.3% | cPLA2 inh, XI(50) [2]: XI(50) =0.014 ± .009 mole fraction

CCC(=O)C(=O)NCCCCC(=O)OC(C)(C)C [AX105]
inhibition at 0.091 mole fraction [1]: 61.7% | inhibition at 0.091 mole fraction (GV sPLA2): 96.3% | inhibition at 0.091 mole fraction [2]: 73.8%

CCCCCCCCC=CCCCCCCCC(=O)C(=O)NCCCC(=O)O [AX040, 4-(2-Oxo-nonadec-10-enoylamino)-butyric acid]
inhibition of GVIA PLA2 (iPLA2), in words [1]: do not inhibit GVIA PLA2 | Inhibition of GVIA PLA2 [1]: ND (negligible inhibition (0-25%) at highest dose) | inhibition of GIVA PLA2 (cPLA2), in words [2]: inhibit GIVA PLA2 | melting point: 57 to 59 °C

C=CCOC(=O)CCCNC(=O)C(=O)CC [AX126]
inhibition at 0.091 mole fraction [1]: 63.2% | inhibition at 0.091 mole fraction (GV sPLA2): 37.9% | inhibition at 0.091 mole fraction [2]: 52.9%

CCOCCCCNC(=O)C(=O)CC [AX081]
inhibition at 0.091 mole fraction [1]: 50.9% | inhibition at 0.091 mole fraction (GV sPLA2): 76.5% | cPLA2 inh, XI(50) [2]: XI(50) =0.018 ± .016 mole fraction

CCC(=O)C(=O)NCC(=O)OC(C)(C)C [AX111]
inhibition at 0.091 mole fraction [1]: 53.1% | inhibition at 0.091 mole fraction (GV sPLA2): 95.9% | inhibition at 0.091 mole fraction [2]: 79.6%

NC(=O)C(=O)CCCCc1ccccc1 [AX015]
inhibition of GVIA PLA2 (iPLA2), in words [1]: neither exhibits significant inhibition; also recorded: no significant activity | Inhibition of GVIA PLA2 [1]: ND (negligible inhibition (0-25%) at highest dose) | efficacy against sPLA2 (GV sPLA2): 45.3% | inhibition of GIVA PLA2 (cPLA2), in words [2]: neither exhibits significant inhibition; also recorded: no significant activity | Inhibition of GIVA PLA2 [2]: ND (negligible inhibition (0-25%) at highest dose)

CCC[C@@H](/C=C/C(=O)OCC)NC(=O)C(=O)CC [AX093]
inhibition at 0.091 mole fraction [1]: 66.5% | inhibition at 0.091 mole fraction (GV sPLA2): 78.3% | cPLA2 inh, XI(50) [2]: XI(50) =0.031 ± .011 mole fraction

CCOC(=O)CCNC(=O)C(=O)CC [AX104]
inhibition at 0.091 mole fraction [1]: 50.6% | inhibition at 0.091 mole fraction (GV sPLA2): 58.8% | inhibition at 0.091 mole fraction [2]: 44%

CCC(=O)C(=O)NCCCC(=O)OCc1ccccc1 [AX116]
inhibition at 0.091 mole fraction [1]: 10.7% | inhibition at 0.091 mole fraction (GV sPLA2): 57.5% | inhibition at 0.091 mole fraction [2]: 34.8%

CCC[C@@H](COCC(=O)OCC)NC(=O)C(=O)CC [AX128]
inhibition at 0.091 mole fraction [1]: 92.8% | inhibition at 0.091 mole fraction (GV sPLA2): 80.6% | inhibition at 0.091 mole fraction [2]: 52.3%

CCCCC(=O)CCCNC(=O)C(=O)CC [AX082]
inhibition at 0.091 mole fraction (GV sPLA2): 7.4% | inhibition at 0.091 mole fraction [2]: 31.8%

CCNC(=O)C(=O)CC [AX002]
inhibition of GVIA PLA2 (iPLA2), in words [1]: limited inhibition of GVIA PLA2 | Inhibition of GVIA PLA2 [1]: LD^b (limited inhibition (25-50%) at highest dose) | inhibition of GIVA PLA2 (cPLA2), in words [2]: no detectable inhibition of GIVA PLA2 | Inhibition of GIVA PLA2 [2]: ND (negligible inhibition (0-25%) at highest dose)

CCC(=O)C(=O)NCCC(=O)OC(C)(C)C [AX113]
inhibition at 0.091 mole fraction [1]: 54% | efficacy against sPLA2 (GV sPLA2): about 100% | inhibition at 0.091 mole fraction (GV sPLA2): 100% | inhibition at 0.091 mole fraction [2]: 79.2%

CCC[C@@H](CCCCC(=O)OCC)NC(=O)C(=O)CC [AX065]
iPLA2 inh, XI(50) [1]: XI(50) =0.054 ± .016 mole fraction | inhibition at 0.091 mole fraction (GV sPLA2): 23.2% | inhibition at 0.091 mole fraction [2]: 61.8%

CCCC[C@H](NC(=O)C(=O)CC)C(=O)NCC(=O)OC(C)(C)C [AX121]
inhibition at 0.091 mole fraction [1]: 89.6% | inhibition at 0.091 mole fraction (GV sPLA2): 58.5% | inhibition at 0.091 mole fraction [2]: 72%

CCCC[C@@H](COCC(=O)OC(C)(C)C)NC(=O)C(=O)CC [AX122]
inhibition at 0.091 mole fraction [1]: 81% | inhibition at 0.091 mole fraction (GV sPLA2): 57.2% | inhibition at 0.091 mole fraction [2]: 43.6%

CCNC(=O)C(=O)CC [AX009]
inhibition of GVIA PLA2 (iPLA2), in words [1]: limited inhibition of GVIA PLA2 | Inhibition of GVIA PLA2 [1]: LD (limited inhibition (25-50%) at highest dose) | inhibition of GIVA PLA2 (cPLA2), in words [2]: no detectable inhibition of GIVA PLA2 | Inhibition of GIVA PLA2 [2]: ND (negligible inhibition (0-25%) at highest dose)

CCOC(=O)CCCNC(=O)C(=O)CCc1ccc(OCC)cc1 [AX090]
inhibition at 0.091 mole fraction [1]: 67.3% | inhibition at 0.091 mole fraction (GV sPLA2): 51.7% | cPLA2 inh, XI(50) [2]: XI(50) =0.050 ± .002 mole fraction

CC/C=C\CC(=O)C(=O)NCCCC(=O)OCC [AX110]
inhibition at 0.091 mole fraction [1]: 52.8% | inhibition at 0.091 mole fraction (GV sPLA2): 96.6% | inhibition at 0.091 mole fraction [2]: 69.9%

CCOC(=O)CCCCNC(=O)C(=O)CC [AX102]
inhibition at 0.091 mole fraction [1]: 35.3% | inhibition at 0.091 mole fraction (GV sPLA2): 47.1% | inhibition at 0.091 mole fraction [2]: 30.6%

CCC(=O)C(N)=O [AX001]
inhibition of GVIA PLA2 (iPLA2), in words [1]: neither exhibits significant inhibition | Inhibition of GVIA PLA2 [1]: ND^a (negligible inhibition (0-25%) at highest dose) | inhibition of GIVA PLA2 (cPLA2), in words [2]: neither exhibits significant inhibition | Inhibition of GIVA PLA2 [2]: ND (negligible inhibition (0-25%) at highest dose)
